Source: patent US10258640B2, “Method of inhibiting quorum sensing in Pseudomonas aeruginosa” (priority 2015, dated 2019)

How the values were obtained:
[1] = system: las quorum-sensing system; experiment: PA01 lasB-gfp cell-based fluorescence reporter assay; parameters: species or system Pseudomonas aeruginosa; details: various micromolar concentrations
Excerpt: The inhibition of quorum sensing has been observed by the inventors during a chemical screen set up to look for small-molecule inhibitors of quorum sensing in P. aeruginosa. The assay used is a cell-based fluorescence assay (PA01 lasB-gfp) in which the expression of GFP is controlled by a las-regulated promoter. Inhibition of induction of the las quorum-sensing system by a small molecule is marked by the reduction in GFP signal relative to an untreated sample.

[2] = system: rhl quorum-sensing system; experiment: PA01 rhlA-gfp reporter assay; format: cell-based, Pseudomonas aeruginosa; details: various micromolar concentrations
[3] = system: pqs quorum-sensing system; experiment: PA01 pqsA-gfp reporter assay; format: cell-based, Pseudomonas aeruginosa; details: various micromolar concentrations
[4] = system: P. aeruginosa; experiment: Growth of P. aeruginosa; format: cell-based, Pseudomonas aeruginosa; details: low micromolar concentrations
[5] = system: P. aeruginosa proteome; experiment: Proteomic analysis of auranofin-treated cultures; format: cell-based, Pseudomonas aeruginosa; details: proteome in presence or absence of auranofin
[6] = system: lasA, rhlA, pqsA, exsC, pscL, pilM and pilY genes; experiment: Quantitative RT-PCR of RNA levels; format: cell-based, Pseudomonas aeruginosa
[7] = system: elastase (LasB); experiment: Elastase activity in culture supernatants (commercial elastase activity kit); format: cell-based, Pseudomonas aeruginosa; details: culture supernatants after 7 hours of treatment, various micromolar concentrations
Method: LasB levels were measured using a commercial elastase activity kit.

[8] = system: rhamnolipids; experiment: Rhamnolipid levels in culture supernatants (MRM mass spectrometry); format: cell-based, Pseudomonas aeruginosa; details: culture supernatants after 7 hours of treatment, various micromolar concentrations
Method: Rhamnolipid levels were determined using multiple reaction monitoring (MRM) mass spectrometry.

[9] = system: pyocyanin; experiment: Pyocyanin levels in culture supernatants (absorbance at 691 nm); format: cell-based, Pseudomonas aeruginosa; details: culture supernatants after 7 hours of treatment, various micromolar concentrations
Method: Pyocyanin levels were determined via absorbance at 691 nm.

[10] = system: P. aeruginosa (PA01); experiment: Swarming motility assay; format: cell-based, Pseudomonas aeruginosa; details: 10 μM
Excerpt: (§1) The top-left and bottom-left petri dishes contain P. aeruginosa (PA01) and PA01-lasIrhlI, respectively, serving as the controls.

[11] = system: P. aeruginosa (PA01); experiment: Twitching motility assay; format: cell-based, Pseudomonas aeruginosa; details: 10 μM
Excerpt: as §1

[12] = system: P. aeruginosa (PA01); experiment: Swimming motility assay; format: cell-based, Pseudomonas aeruginosa; details: 10 μM
[13] = target: wild-type Vfr binding to the promoter of lasR (plasR) (Pseudomonas aeruginosa, UniProt P55222); experiment: Electrophoretic mobility shift assay (EMSA), wild-type Vfr; details: increasing concentrations
Excerpt: (§2) It depicts auranofin inhibiting the binding of wild-type Vfr, but not of the mutant pentaCys variant, to a DNA fragment containing the lasR promoter sequence (plasR) in a dose dependent manner.
(§3) It was hypothesized that auranofin inhibits Vfr, a global response regulator dependent on cyclic-AMP, which is known to control Type III secretion, Type IV pilus assembly and the quorum sensing networks (las and rhl). This was validated using electrophoretic mobility shift assays (EMSA) (see FIG. 6). Based on the EMSA, it can be seen that the binding of wild-type Vfr to the promoter of lasR (plasR), was inhibited by treatment with auranofin. In contrast, the binding of mutant Vfr proteins (C38S/C97S or C38S/C183S) to the same DNA fragment was not inhibited by auranofin.

[14] = system: mutant Vfr proteins (C38S/C97S or C38S/C183S) binding to plasR; experiment: Electrophoretic mobility shift assay (EMSA), mutant Vfr; parameters: species or system Pseudomonas aeruginosa; details: increasing concentrations
Excerpt: as §2, §3

[15] = system: Δvfr strain expressing pentaCys Vfr; experiment: Twitching motility in Δvfr strain complemented with pentaCys Vfr; format: cell-based, Pseudomonas aeruginosa
[16] = system: Δvfr strain expressing pentaCys Vfr; experiment: Quorum sensing (LasB production) in Δvfr strain complemented with pentaCys Vfr; format: cell-based, Pseudomonas aeruginosa
[17] = system: P. aeruginosa biofilms; experiment: Biofilm treatment (GFP-expressing cells, propidium iodide staining, imaging); format: cell-based, Pseudomonas aeruginosa
Method: FIG. 8 depicts the effects of auranofin, and its combination either with colistin or tobramycin, on the morphology of biofilms formed using P. aeruginosa cells expressing green fluorescent protein (GFP). DNA from dead cells were labeled with propidium iodide. Auranofin was added either prior to (lower panels) or after formation of the biofilm (24 h before imaging, middle panels). Colistin and tobramycin were added after formation of the biofilm (24 h before imaging, middle panels). […] Scale bar: 5 μm.
Quorum sensing inhibitors are known to affect biofilm morphology and structure. Since auranofin inhibits Vfr, which in turn affects quorum sensing, the effects of auranofin treatment on P. aeruginosa biofilms were investigated.

Chain of wild-type Vfr binding to the promoter of lasR (plasR) (P55222 whole entry, the tested form may be a part): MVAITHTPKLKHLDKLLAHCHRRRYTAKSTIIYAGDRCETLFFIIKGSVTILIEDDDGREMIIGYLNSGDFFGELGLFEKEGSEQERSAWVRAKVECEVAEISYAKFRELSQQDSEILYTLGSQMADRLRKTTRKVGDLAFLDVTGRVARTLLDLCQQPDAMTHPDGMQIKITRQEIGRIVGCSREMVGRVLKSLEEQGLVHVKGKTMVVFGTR

Row | Compound | induction of las (PA01 lasB-gfp) quorum-sensing network, RFU/OD against time [1] | induction of rhl (PA01 rhlA-gfp) quorum-sensing network, RFU/OD against time [2] | induction of pqs (PA01 pqsA-gfp) quorum-sensing network, RFU/OD against time [3] | effect on growth of P. aeruginosa [4] | cellular levels of proteins controlled by quorum sensing [5] | levels of proteins involved in Type III secretion and formation of the Type IV pilus [5] | RNA levels of quorum-sensing regulated, Type III secretion and Type IV pilus assembly genes [6] | level of virulence factor LasB (elastase activity) [7] | level of virulence factor rhamnolipids [8] | level of virulence factor pyocyanin [9] | swarming motility [10] | twitching motility [11] | swimming motility [12] | binding of wild-type Vfr to the promoter of lasR (plasR) [13] | binding of mutant Vfr proteins to the same DNA fragment (plasR) [14] | twitching in the strain expressing the pentaCys Vfr [15] | QS (LasB production) in the strain expressing the pentaCys Vfr [16] | biofilm morphology disruption and killing, together with colistin ([17]; auranofin together with colistin) | biofilm morphology disruption and killing, together with tobramycin ([17]; auranofin together with tobramycin) | effect on biofilm morphology and cell death ([17]; auranofin treatment prior to biofilm formation)
1 | CC(=O)OC[C@H]1O[C@@H]([S-])[C@H](OC(C)=O)[C@@H](OC(C)=O)[C@@H]1OC(C)=O.CCP(CC)CC.[Au+] [auranofin] | completely inhibiting | completely inhibiting | completely inhibiting | not affecting growth | down-regulated | down-regulation | generally down-regulated | reduced | reduced | reduced | inhibit | inhibit | does not inhibit | inhibited | not inhibited | still able to inhibit | still able to inhibit | synergistic effects | synergistic effects | substantial cell death and the loss of the characteristic morphology of normal biofilms
2 | OC[C@H]1O[C@H]([S-])[C@H](O)[C@@H](O)[C@@H]1O.[Au+] [aurothioglucose] | completely inhibiting | – | – | – | – | – | – | – | – | – | – | – | – | – | – | – | – | – | – | –
3 | sodium aurothiomalate | completely inhibiting | – | – | – | – | – | – | – | – | – | – | – | – | – | – | – | – | – | – | –
